Reference: patent US10173999B2, “Cyclic amine derivative and pharmaceutical use thereof” (Toray Industries, Inc., priority 2015, dated 2019)

Assay: Pharmacokinetics (PK) test in cynomolgus monkeys
Assay type: in vivo, cynomolgus monkey
Experimental: Cynomolgus monkeys (4 to 6 years old, male) were raised under the conditions of voluntary intake of solid food (Oriental Yeast Co., Ltd) and tap water and fasted from the evening of the day before initiation of administration and subjected to an experiment. Note that blood was sampled at 4 hours after administration (on and after 16:00), and thereafter feeding was restarted.
Dosing solution for intravenous administration was injected through the saphenous vein by use of a syringe needle (attached to a syringe barrel). The oral administration into the stomach was compulsively carried out by inserting a catheter into the nasal cavity.
The blood sampled was centrifuged at 4° C. and 1800×g for 15 minutes to obtain the plasma. The plasma thus obtained was stored at about −80° C. until use in preparation of analysis samples. The plasma obtained from a cynomolgus monkey to which a test compound was administrated, is referred to as a plasma sample; whereas the plasma obtained from a cynomolgus monkey to which a test compound was not administered, is referred to as the blank plasma.
(§1) The resulting solution was vortexed and cooled at 4° C. for 10 minutes. A sample for a calibration curve was prepared by adding a standard solution for a calibration curve to the blank plasma and subjecting the resulting mixture to the same treatment. After cooling, each of the samples was spun at 4° C. and 2000 rpm for 10 minutes by a centrifuge (Hitachi Koki Co., Ltd.). The resulting supernatant was used as a sample for LC/MS/MS analysis.
as §1, with “diluted 10 fold with 70 vol % acetonitrile containing 0.1 vol % formic acid and subjected” for “used”, “analysis. The LC/MS/MS analysis conditions were as follows:” for “analysis.”
The test-compound concentrations in the plasma at each sampling time point in the case of intravenous administration or oral administration were calculated and PK analysis was carried out for individual monkeys. PK parameters were calculated by using WinNonlin (Pharsight), in accordance with an analysis independent of a model (intravenous administration: Bolus IV Administration, oral administration: Extravascular Administration; Weight=1/y in both administrations). Furthermore, bioavailability (BA) was calculated based on the following Expression (3) by dividing AUC0-∞iv (time 0 to ∞) at the time of the intravenous administration and AUC0-∞po (time 0 to ∞) at the time of the oral administration by respective dose values to obtained as normalized values. Bioavailability (BA)=(AUC0-∞,po/dose)/(AUC0-∞,iv/dose) (3)

Q: For `CN(C)C1CCN(C(=O)C[C@H](O)c2nccn2C)CC1` [Example 11, (S)-1-(4-(dimethylamino)piperidin-1-yl)-3-hydroxy-3-(1-methyl-1H-imidazol-2-yl)propan-1-one], which “mean plasma concentration after administration compared with Comparative Example 2” value (cynomolgus monkeys, intravenous and oral 1 mg/kg, all time points) is on record?
A: higher

Q: And the bioavailability (male, plasma, cynomolgus monkey, 1 mg/kg oral vs 1 mg/kg intravenous, read-out: BA (bioavailability))?
A: 52.6%

Q: What about the clearance (male, plasma, cynomolgus monkey, intravenous administration 1 mg/kg, single, read-out: CLtot (total body clearance) (converted)) of the same compound?
A: 3.25 mL/min/kg

Q: And the AUC(0-inf) (male, plasma, cynomolgus monkey, oral administration 1 mg/kg, single)?
A: 2730 ng·h/mL

Q: And the Cmax (male, plasma, cynomolgus monkey, oral administration 1 mg/kg, single, read-out: Cmax (maximum plasma concentration))?
A: 279 ng/mL

Q: And the half-life (male, plasma, cynomolgus monkey, oral administration 1 mg/kg, single, read-out: t1/2 (elimination half-life in the plasma) (converted))?
A: 7.55 h
